# Experimental data: ChEMBL document CHEMBL1201862, “PubChem BioAssay data set” (2004)
#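 Assay format: 96-well plates, 48-hour exposure. GI50: concentration for 50% inhibition of growth.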 The source made the active and inactive calls. No stated cut-off is given here; in the data, active = GI50 up to about 1.1 µM and inactive = higher.
# What was measured:
# Assay in all cases: inhibition of tumour cell growth, NCI panel, 48 h
# [1] = tested on: UO-31
# [2] = tested on: A498
# [3] = tested on: 786-0
# [4] = tested on: ACHN
# [5] = tested on: SR
# [6] = tested on: OVCAR-4
# [7] = tested on: U-251
# [8] = tested on: SK-OV-3
# [9] = tested on: EKVX
# [10] = tested on: M14
# [11] = tested on: CAKI-1
# [12] = tested on: HCT-116
# [13] = tested on: SNB-75
# [14] = tested on: SW-620
# [15] = tested on: NCI-H226
# [16] = tested on: CCRF-CEM
# [17] = tested on: SF-268
# [18] = tested on: HOP-92
# [19] = tested on: HL-60
# [20] = tested on: MDA-MB-231
SMILES,GI50 [1],GI50 [2],GI50 [3],GI50 [4],GI50 [5],GI50 [6],GI50 [7],GI50 [8],GI50 [9],GI50 [10],GI50 [11],GI50 [12],GI50 [13],GI50 [14],GI50 [15],GI50 [16],GI50 [17],GI50 [18],GI50 [19],GI50 [20]
[O-][S+]1c2ccccc2N=C(c2ccc(Cl)cc2)CC1c1cccs1 (configuration not stated),17.7 µM (inactive),97.1 µM (inactive),15 µM (inactive),28.2 µM (inactive),7.01 µM (inactive),11 µM (inactive),15.5 µM (inactive),28.9 µM (inactive),35.4 µM (inactive),15.5 µM (inactive),21.4 µM (inactive),10.9 µM (inactive),46.7 µM (inactive),14.4 µM (inactive),90.4 µM (inactive),17.3 µM (inactive),29.2 µM (inactive),19.7 µM (inactive),14.2 µM (inactive),–
O=C(Nc1ccc(F)cc1)c1cc2c(cc1Cl)Sc1nccn1S2(=O)=O,–,23.7 µM (inactive),28.2 µM (inactive),63.1 µM (inactive),–,55.7 µM (inactive),16.3 µM (inactive),94.6 µM (inactive),> 100 µM (inactive),> 100 µM (inactive),30.7 µM (inactive),35.6 µM (inactive),17.8 µM (inactive),> 100 µM (inactive),> 100 µM (inactive),> 100 µM (inactive),37.3 µM (inactive),–,–,38.2 µM (inactive)
COc1ccc2c(c1)CCCN1Cc3cc(OC)c(OC)cc3CC21 (configuration not stated),48.8 µM (inactive),–,73.3 µM (inactive),> 100 µM (inactive),–,43.7 µM (inactive),> 100 µM (inactive),66.2 µM (inactive),> 100 µM (inactive),18.9 µM (inactive),> 100 µM (inactive),18.2 µM (inactive),21.4 µM (inactive),> 100 µM (inactive),> 100 µM (inactive),99.8 µM (inactive),50.9 µM (inactive),15.9 µM (inactive),–,> 100 µM (inactive)
FC(F)(F)C1(Cl)C(Cl)(c2ccccc2)C1(Cl)c1ccccc1 (configuration not stated),14.8 µM (inactive),–,15.8 µM (inactive),16.1 µM (inactive),7.08 µM (inactive),14.2 µM (inactive),14.7 µM (inactive),23.1 µM (inactive),16.3 µM (inactive),16.4 µM (inactive),13 µM (inactive),11.9 µM (inactive),16.3 µM (inactive),15.7 µM (inactive),13.9 µM (inactive),14.9 µM (inactive),17.3 µM (inactive),12.3 µM (inactive),17.7 µM (inactive),–
O=C(C/C=C/c1ccccc1)c1ccccc1,14.1 µM (inactive),15.7 µM (inactive),21.6 µM (inactive),16.6 µM (inactive),12.4 µM (inactive),–,14.6 µM (inactive),49.5 µM (inactive),35.5 µM (inactive),16.2 µM (inactive),17 µM (inactive),17.4 µM (inactive),20.6 µM (inactive),31.2 µM (inactive),29.5 µM (inactive),22.2 µM (inactive),20.7 µM (inactive),29 µM (inactive),16.1 µM (inactive),–
Brc1nc2c3ccccc3ncn2c1Br,36.7 µM (inactive),43.5 µM (inactive),37.2 µM (inactive),19.6 µM (inactive),19.4 µM (inactive),16 µM (inactive),28.8 µM (inactive),38.5 µM (inactive),21.1 µM (inactive),38.5 µM (inactive),28.3 µM (inactive),37.3 µM (inactive),20.1 µM (inactive),36.6 µM (inactive),26.4 µM (inactive),25.5 µM (inactive),82.6 µM (inactive),27.9 µM (inactive),22.5 µM (inactive),–
Nc1ccc(C2NC(=O)Cc3c2ccc2ccccc32)cc1 (configuration not stated),32.1 µM (inactive),> 100 µM (inactive),–,58.1 µM (inactive),> 100 µM (inactive),40.3 µM (inactive),> 100 µM (inactive),> 100 µM (inactive),84.7 µM (inactive),89.9 µM (inactive),79.4 µM (inactive),81.1 µM (inactive),> 100 µM (inactive),> 100 µM (inactive),34.4 µM (inactive),80 µM (inactive),89.5 µM (inactive),> 100 µM (inactive),35.2 µM (inactive),–
Cc1cccc(C)c1NC(=O)CCC(=O)NNC(=O)c1cc(O)c2ccccc2c1,32.1 µM (inactive),0.344 µM (active),38 µM (inactive),37.2 µM (inactive),28.2 µM (inactive),–,48.8 µM (inactive),97.9 µM (inactive),42.3 µM (inactive),31.4 µM (inactive),31.8 µM (inactive),31.9 µM (inactive),> 100 µM (inactive),40 µM (inactive),> 100 µM (inactive),12.2 µM (inactive),27.6 µM (inactive),> 100 µM (inactive),27.8 µM (inactive),–
CC1=C(C(=O)Nc2ccc(Cl)c(Cl)c2)C(c2ccc([N+](=O)[O-])cc2)C(C(=O)Nc2ccc(Cl)c(Cl)c2)=C(C)N1,2.69 µM (inactive),3.32 µM (inactive),2.81 µM (inactive),3.09 µM (inactive),0.179 µM (active),2.64 µM (inactive),2.49 µM (inactive),4.31 µM (inactive),3.13 µM (inactive),1.85 µM (inactive),2.54 µM (inactive),1.55 µM (inactive),3.84 µM (inactive),3.05 µM (inactive),3.88 µM (inactive),–,3.38 µM (inactive),2.4 µM (inactive),0.361 µM (active),–
O=C1/C(=N\O)c2ccccc2S1(=O)=O,> 100 µM (inactive),39.7 µM (inactive),61 µM (inactive),> 100 µM (inactive),79.3 µM (inactive),> 100 µM (inactive),> 100 µM (inactive),> 100 µM (inactive),–,> 100 µM (inactive),16.6 µM (inactive),> 100 µM (inactive),66.2 µM (inactive),> 100 µM (inactive),19.4 µM (inactive),60 µM (inactive),80.9 µM (inactive),> 100 µM (inactive),25.2 µM (inactive),–
COc1ccc(/C=C2/SC(c3c(O)ccc4ccccc34)N(NC(=O)CCCCCCCCC(=O)NN3C(=O)/C(=C\c4ccc(OC)c(OC)c4)SC3c3c(O)ccc4ccccc34)C2=O)cc1OC (configuration not stated),0.486 µM (active),7.6 µM (inactive),0.519 µM (active),0.755 µM (active),0.0962 µM (active),1.64 µM (inactive),1.26 µM (inactive),2.24 µM (inactive),2.12 µM (inactive),0.897 µM (active),1.22 µM (inactive),0.345 µM (active),8.53 µM (inactive),1.53 µM (inactive),0.855 µM (active),0.222 µM (active),0.418 µM (active),1.09 µM (active),–,–
COC(=O)NNc1c([N+](=O)[O-])cnn(-c2ccccc2)c1=O,8.93 µM (inactive),27.3 µM (inactive),3.32 µM (inactive),4.44 µM (inactive),0.497 µM (active),2.07 µM (inactive),2.62 µM (inactive),9.71 µM (inactive),3.82 µM (inactive),1.8 µM (inactive),3.98 µM (inactive),1.78 µM (inactive),7.48 µM (inactive),1.07 µM (active),4.19 µM (inactive),0.302 µM (active),3.1 µM (inactive),2.18 µM (inactive),1.39 µM (inactive),–
Cc1cccc(C)c1NC(=O)CCc1nnc2s/c(=C\c3ccc(N(C)C)cc3)c(=O)n12,> 100 µM (inactive),> 100 µM (inactive),> 100 µM (inactive),> 100 µM (inactive),> 100 µM (inactive),> 100 µM (inactive),> 100 µM (inactive),> 100 µM (inactive),–,> 100 µM (inactive),> 100 µM (inactive),> 100 µM (inactive),> 100 µM (inactive),> 100 µM (inactive),> 100 µM (inactive),38.6 µM (inactive),59.2 µM (inactive),> 100 µM (inactive),68.1 µM (inactive),–
Cn1nc2ccc3nccc(N(CCO)CCO)c3c2n1,> 100 µM (inactive),> 100 µM (inactive),> 100 µM (inactive),> 100 µM (inactive),> 100 µM (inactive),–,> 100 µM (inactive),> 100 µM (inactive),> 100 µM (inactive),> 100 µM (inactive),> 100 µM (inactive),> 100 µM (inactive),> 100 µM (inactive),> 100 µM (inactive),> 100 µM (inactive),> 100 µM (inactive),> 100 µM (inactive),> 100 µM (inactive),> 100 µM (inactive),–
FC(F)(F)c1ccc2c(c1)N(CCCNCCN1CCOCC1)c1ccccc1S2,3.83 µM (inactive),17.9 µM (inactive),–,12.3 µM (inactive),6.32 µM (inactive),–,11.6 µM (inactive),> 10 µM (inactive),15 µM (inactive),1.95 µM (inactive),–,3.17 µM (inactive),7.13 µM (inactive),10.2 µM (inactive),–,12.6 µM (inactive),15.9 µM (inactive),3.4 µM (inactive),6.07 µM (inactive),–
